Earlier results as cited in patent US20160106677A1, “PHARMACEUTICAL COMPOSITION AND USES THEREOF” (Boehringer Ingelheim International GmbH, priority 2014, published 2016).

Tested on: HbA1c
Conditions: metformin on its own, in the diabetic

CN(C)C(=N)N=C(N)N [metformin]
average improvement in the HbA1c value: 1.0-1.5%
